Columns and labels:
Carbonic anhydrase 1 = Carbonic anhydrase 1 (Homo sapiens, UniProt P00915); test: Inhibition of human CA I assessed as inhibition constant by stopped-flow CO2 hydrase assay method
Carbonic anhydrase 2 = Carbonic anhydrase 2 (Homo sapiens, UniProt P00918); test: Inhibition of human CA II assessed as inhibition constant by stopped-flow CO2 hydrase assay method
Carbonic anhydrase 9 = Carbonic anhydrase 9 (Homo sapiens, UniProt Q16790); test: Inhibition of human CA IX assessed as inhibition constant by stopped-flow CO2 hydrase assay method
Carbonic anhydrase 12 = Carbonic anhydrase 12 (Homo sapiens, UniProt O43570); test: Inhibition of human CA XII assessed as inhibition constant by stopped-flow CO2 hydrase assay method
Chain of Carbonic anhydrase 12 (O43570 whole entry): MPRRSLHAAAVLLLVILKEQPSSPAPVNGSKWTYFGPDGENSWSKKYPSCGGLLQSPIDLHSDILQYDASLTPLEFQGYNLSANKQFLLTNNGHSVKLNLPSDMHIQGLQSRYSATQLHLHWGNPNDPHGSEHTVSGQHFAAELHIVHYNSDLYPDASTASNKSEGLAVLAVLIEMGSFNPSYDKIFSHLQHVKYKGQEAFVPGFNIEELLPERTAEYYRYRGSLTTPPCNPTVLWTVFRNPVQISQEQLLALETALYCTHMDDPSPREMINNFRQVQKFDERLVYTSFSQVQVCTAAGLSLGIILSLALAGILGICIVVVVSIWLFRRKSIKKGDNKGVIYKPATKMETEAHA

Chain of Carbonic anhydrase 1 (P00915 whole entry): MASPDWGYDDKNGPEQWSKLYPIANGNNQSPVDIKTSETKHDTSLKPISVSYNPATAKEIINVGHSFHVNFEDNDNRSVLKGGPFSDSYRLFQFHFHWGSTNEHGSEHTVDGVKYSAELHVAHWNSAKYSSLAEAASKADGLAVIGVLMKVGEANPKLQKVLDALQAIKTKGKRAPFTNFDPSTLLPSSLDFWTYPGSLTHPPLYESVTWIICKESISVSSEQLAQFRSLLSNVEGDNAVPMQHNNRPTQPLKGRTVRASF

Row | SMILES | Ki (Carbonic anhydrase 1) [µM] | Ki (Carbonic anhydrase 2) [µM] | Ki (Carbonic anhydrase 9) [µM] | Ki (Carbonic anhydrase 12) [µM]
1 | CC1=NN(c2ccc(C#N)cc2)C(=O)/C1=N/Nc1cccc(S(N)(=O)=O)c1 | 0.495 | 0.0005 | 0.0607 | 0.0039
2 | CC1=NN(c2ccc(Cl)cc2Cl)C(=O)/C1=N/Nc1cccc(S(N)(=O)=O)c1 | 53.2 | 0.473 | 0.158 | 0.273
3 | CC1=NN(c2ccccc2Cl)C(=O)/C1=N/Nc1cccc(S(N)(=O)=O)c1 | 9.08 | 0.29 | 0.0707 | 0.123
4 | CC1=NNC(=O)/C1=N/Nc1ccc(S(N)(=O)=O)cc1 | 0.0531 | 0.0025 | 0.0362 | 0.161
5 | CC1=NN(c2ccccc2)C(=O)/C1=N/Nc1ccc(S(N)(=O)=O)cc1 | 0.712 |  | 0.0087 | 0.0488
6 | CC1=NN(c2ccc(C#N)cc2)C(=O)/C1=N/Nc1ccc(S(N)(=O)=O)cc1 | 0.504 | 0.059 | 0.0032 | 0.0092
7 | CC1=NN(c2ccc(C)cc2)C(=O)/C1=N/Nc1cccc(S(N)(=O)=O)c1 | 0.376 | 0.186 | 0.0449 | 0.0406
8 | CC1=NN(c2ccccc2)C(=O)/C1=N/Nc1cccc(S(N)(=O)=O)c1 | 8.31 | 0.0066 | 0.015 | 0.0535
9 | CC1=NN(c2ccc(Cl)cc2)C(=O)/C1=N/Nc1cccc(S(N)(=O)=O)c1 | 7.81 | 0.327 | 0.0402 | 0.0906
10 | CC1=NN(c2ccc(Cl)cc2Cl)C(=O)/C1=N/Nc1ccc(S(N)(=O)=O)cc1 | 5.27 | 0.072 | 0.0085 | 0.0067
11 | CC1=NNC(=O)/C1=N/Nc1cccc(S(N)(=O)=O)c1 | 0.217 | 0.139 | 0.0229 | 0.0872
12 | CC1=NN(c2ccc(C)cc2)C(=O)/C1=N/Nc1ccc(S(N)(=O)=O)cc1 | 0.337 | 0.0061 | 0.0251 | 0.0661
13 | CC1=NN(c2ccccc2Cl)C(=O)/C1=N/Nc1ccc(S(N)(=O)=O)cc1 | 7.42 | 0.0776 | 0.0312 | 0.0737
14 | CC1=NN(c2ccc(Cl)cc2)C(=O)/C1=N/Nc1ccc(S(N)(=O)=O)cc1 | 8.64 | 0.0211 | 0.0011 | 0.0246
